Columns and labels:
KRAS G12S = KRAS G12S (Homo sapiens (Human), UniProt P01116+P62937, G12S); assay: Ras-Raf disruption/FRET/MOA assay (BRAF RBD, Cyclophilin A); type: biochemical; conditions: read-out: KRAS G12S FRET IC50
Outline: (§1)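 25 μM tagless Cyclophilin A, 12.5 nM His6-Ras-GMPPNP and 50 nM GST-BRAF RBD in HEPES pH 7.3 buffer with 5 mM MgCl2, with compound (10-point 3-fold series from 30 μM final) for 3 h at 25 °C. Anti-His Eu and anti-GST APC then added for 1.5 h. IC50 from TR-FRET ratio decrease versus DMSO.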

KRAS G12C = KRAS G12C (Homo sapiens (Human), UniProt P01116+P62937, G12C); assay: as above; type: biochemical; conditions: read-out: KRAS G12C FRET IC50
Outline: as §1

KRAS G12V = KRAS G12V (Homo sapiens (Human), UniProt P01116+P62937, G12V); assay: as above; type: biochemical; conditions: read-out: KRAS G12V FRET IC50
Outline: as §1

KRAS G13D = KRAS G13D (Homo sapiens (Human), UniProt P01116+P62937, G13D); assay: as above; type: biochemical; conditions: read-out: KRAS G13D FRET data IC50
Outline: as §1

KRAS G13C = KRAS G13C (Homo sapiens (Human), UniProt P01116+P62937, G13C); assay: as above; type: biochemical; conditions: read-out: KRAS G13C FRET IC50
Outline: as §1

KRAS G12D = KRAS G12D (Homo sapiens (Human), UniProt P01116+P62937, G12D); assay: as above; type: biochemical; conditions: read-out: KRAS G12D FRET IC50
Outline: as §1

KRAS WT = KRAS WT (Homo sapiens (Human), UniProt P01116+P62937); assay: as above; type: biochemical; conditions: read-out: KRAS WT FRET data IC50
Outline: as §1

NRAS G12C = NRAS G12C (Homo sapiens (Human), UniProt P01111+P62937, G12C); assay: as above; type: biochemical; conditions: read-out: NRAS G12C FRET data IC50
Outline: as §1

[1] = tested on: NCI-H358 cells (K-Ras G12C); assay: CellTiter-Glo cell viability, NCI-H358; type: cell-based, human; conditions: Homo sapiens, NCI-H358, 120 h, K-Ras G12C, 5-day treatment; read-out: H358 Cell Viability IC50
Method: Note—The following protocol describes a procedure for monitoring cell viability of K-Ras mutant cancer cell lines in response to a compound of the invention. Other RAS isoforms may be employed, though the number of cells to be seeded will vary based on cell line used.
Test compounds (132.5 nl) were directly dispensed into the assay plates containing cells. […] On day 5, assay plates and their contents were equilibrated to room temperature for approximately 30 minutes. […] Luminescence was measured using the PerkinElmer Enspire. Data were normalized by the following: (Sample signal/Avg. DMSO)*100. The data were fit using a four-parameter logistic fit.

[2] = tested on: K-Ras G12C (NCI-H358 cells); assay: Potency assay: pERK in NCI-H358 cells; type: cell-based, human; conditions: Homo sapiens; NCI-H358 cells, 4 hours; read-out: pERK EC50 (H358 KRAS G12C)
Outline: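 Cells plated the day before were exposed for 4 h at 37° C, 5% CO2 to a 10-point, 3-fold DMSO dilution series (10 mM top stock), in duplicate. Phospho-ERK was read by AlphaLISA SureFire Ultra or by In-Cell Western with DRAQ5 DNA stain, and IC50 came from a 4-parameter sigmoidal fit.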

[3] = tested on: Capan-1 cells (K-Ras G12V); assay: CellTiter-Glo cell viability, Capan-1; type: cell-based, human; conditions: Homo sapiens, CAPAN-1, 120 h, K-Ras G12V, 5-day treatment; read-out: Capan-1 Cell Viability IC50
Outline: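 Cells seeded, compound dispensed straight into wells, 5-day exposure. Plates brought to room temperature ~30 min, CellTiter-Glo luminescence measured. Normalized to DMSO (%), 4-parameter logistic fit.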

Sequence of KRAS G13D (P01116 other isoform, or with tags, fused parts or gaps G13D): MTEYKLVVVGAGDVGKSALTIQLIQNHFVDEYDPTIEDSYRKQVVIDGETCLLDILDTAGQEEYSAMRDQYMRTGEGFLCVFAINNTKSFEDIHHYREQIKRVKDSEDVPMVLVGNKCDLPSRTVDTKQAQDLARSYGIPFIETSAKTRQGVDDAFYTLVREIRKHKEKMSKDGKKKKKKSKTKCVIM
Sequence of KRAS G13D (P62937 whole entry): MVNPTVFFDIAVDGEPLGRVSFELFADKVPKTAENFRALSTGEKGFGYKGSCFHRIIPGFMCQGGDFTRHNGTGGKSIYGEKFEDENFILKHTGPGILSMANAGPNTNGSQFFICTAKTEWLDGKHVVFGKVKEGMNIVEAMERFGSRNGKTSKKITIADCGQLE
Sequence of KRAS G12D (P01116 other isoform, or with tags, fused parts or gaps G12D): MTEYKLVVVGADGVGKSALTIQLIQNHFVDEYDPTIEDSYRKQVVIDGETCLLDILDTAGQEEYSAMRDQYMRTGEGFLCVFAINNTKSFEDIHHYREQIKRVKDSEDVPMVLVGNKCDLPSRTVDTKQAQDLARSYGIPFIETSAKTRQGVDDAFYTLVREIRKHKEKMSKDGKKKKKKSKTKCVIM
Sequence of KRAS G12D (P62937 whole entry): as the sequence (P62937 whole entry) above
Sequence of KRAS WT (P01116 other isoform, or with tags, fused parts or gaps): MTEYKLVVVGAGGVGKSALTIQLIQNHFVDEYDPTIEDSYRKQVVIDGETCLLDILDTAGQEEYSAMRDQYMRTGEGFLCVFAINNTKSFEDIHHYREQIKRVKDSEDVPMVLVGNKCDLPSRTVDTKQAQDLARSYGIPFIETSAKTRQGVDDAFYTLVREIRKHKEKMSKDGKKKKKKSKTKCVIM
Sequence of KRAS WT (P62937 whole entry): as the sequence (P62937 whole entry) above
Sequence of KRAS G12S (P01116 other isoform, or with tags, fused parts or gaps G12S): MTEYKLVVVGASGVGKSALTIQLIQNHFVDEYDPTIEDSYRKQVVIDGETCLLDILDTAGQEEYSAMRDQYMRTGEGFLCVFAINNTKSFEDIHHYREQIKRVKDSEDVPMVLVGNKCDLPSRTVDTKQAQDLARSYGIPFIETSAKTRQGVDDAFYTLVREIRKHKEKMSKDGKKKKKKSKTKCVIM
Sequence of KRAS G12S (P62937 whole entry): as the sequence (P62937 whole entry) above
Sequence of KRAS G13C (P01116 other isoform, or with tags, fused parts or gaps G13C): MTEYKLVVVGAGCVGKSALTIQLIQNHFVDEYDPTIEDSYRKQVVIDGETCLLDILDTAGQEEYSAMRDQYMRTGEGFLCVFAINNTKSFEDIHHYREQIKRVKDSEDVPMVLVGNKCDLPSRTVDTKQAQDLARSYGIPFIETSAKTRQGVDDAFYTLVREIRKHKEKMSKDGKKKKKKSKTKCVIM
Sequence of KRAS G13C (P62937 whole entry): as the sequence (P62937 whole entry) above
Sequence of KRAS G12V (P01116 other isoform, or with tags, fused parts or gaps G12V): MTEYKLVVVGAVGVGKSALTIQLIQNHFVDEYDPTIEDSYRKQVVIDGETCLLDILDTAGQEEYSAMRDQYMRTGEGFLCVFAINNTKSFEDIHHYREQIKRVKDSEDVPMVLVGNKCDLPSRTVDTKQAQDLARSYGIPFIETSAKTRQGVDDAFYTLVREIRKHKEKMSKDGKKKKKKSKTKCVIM
Sequence of KRAS G12V (P62937 whole entry): as the sequence (P62937 whole entry) above
Sequence of KRAS G12C (P01116-2 other isoform, or with tags, fused parts or gaps G12C): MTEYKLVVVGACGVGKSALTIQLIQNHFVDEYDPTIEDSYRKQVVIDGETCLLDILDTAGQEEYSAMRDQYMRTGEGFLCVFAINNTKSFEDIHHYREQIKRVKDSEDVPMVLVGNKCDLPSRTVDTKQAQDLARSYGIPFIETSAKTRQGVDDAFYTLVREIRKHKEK
Sequence of KRAS G12C (P62937 whole entry): as the sequence (P62937 whole entry) above
Sequence of NRAS G12C (P01111 whole entry G12C): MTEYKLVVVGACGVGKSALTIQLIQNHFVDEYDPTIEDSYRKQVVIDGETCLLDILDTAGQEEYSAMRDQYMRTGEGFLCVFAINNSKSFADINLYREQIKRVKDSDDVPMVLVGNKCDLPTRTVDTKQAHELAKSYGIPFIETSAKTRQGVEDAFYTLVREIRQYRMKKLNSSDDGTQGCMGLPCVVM
Sequence of NRAS G12C (P62937 whole entry): as the sequence (P62937 whole entry) above

Structure (SMILES)	IC50 (KRAS G12S)	IC50 (KRAS G12C)	IC50 (KRAS G12V)	IC50 (KRAS G13D)	IC50 (KRAS G13C)	IC50 (KRAS G12D)	IC50 (KRAS WT)	IC50 (NRAS G12C)	IC50 [1]	EC50 [2]	IC50 [3]
CCn1c(-c2cnccc2COC)c2c3cc(ccc31)-c1cc(O)cc(c1)C[C@H](NC(=O)[C@H](C(C)C)N(C)C(=O)[C@H]1CCN(C(=O)C(C)(C)N)C1)C(=O)N1CCC[C@H](N1)C(=O)OCC(C)(C)C2 [Compound A15]	100 to 1000 nM	10 to 100 nM	100 to 1000 nM	100 to 1000 nM	100 to 1000 nM	100 to 1000 nM	100 to 1000 nM	100 to 1000 nM	1000 to 10000 nM	–	–
CCn1c(-c2cnccc2COC)c2c3cc(ccc31)-c1cc(O)cc(c1)C[C@H](NC(=O)[C@H](C(C)C)N(C)C(=O)N1CCN(C)CC1)C(=O)N1CCC[C@H](N1)C(=O)OCC(C)(C)C2 [Compound A46]	100 to 1000 nM	100 to 1000 nM	1000 to 10000 nM	100 to 1000 nM	100 to 1000 nM	1000 to 10000 nM	100 to 1000 nM	100 to 1000 nM	1000 to 10000 nM	–	–
CCn1c(-c2cnccc2COC)c2c3cc(ccc31)-c1cc(O)cc(c1)C[C@H](NC(=O)[C@H](C(C)C)N(C)C(=O)[C@H]1CCN(C3COC3)C1)C(=O)N1CCC[C@H](N1)C(=O)OCC(C)(C)C2 [Compound A51]	100 to 1000 nM	100 to 1000 nM	1000 to 10000 nM	100 to 1000 nM	100 to 1000 nM	1000 to 10000 nM	100 to 1000 nM	1000 to 10000 nM	1000 to 10000 nM	< 5000 nM	–
CCn1c(-c2cnccc2COC)c2c3cc(ccc31)-c1cc(O)cc(c1)C[C@H](NC(=O)[C@H](C(C)C)N(C)c1ncco1)C(=O)N1CCC[C@H](N1)C(=O)OCC(C)(C)C2 [Compound A52]	1000 to 10000 nM	100 to 1000 nM	1000 to 10000 nM	1000 to 10000 nM	1000 to 10000 nM	> 10000 nM	1000 to 10000 nM	1000 to 10000 nM	1000 to 10000 nM	–	–
CCn1c(-c2cnccc2COC)c2c3cc(ccc31)-c1cc(O)cc(c1)C[C@H](NC(=O)[C@@H](NC(=O)c1ncco1)C(C)C)C(=O)N1CCC[C@H](N1)C(=O)OCC(C)(C)C2 [Compound A56]	1000 to 10000 nM	1000 to 10000 nM	1000 to 10000 nM	1000 to 10000 nM	1000 to 10000 nM	> 10000 nM	1000 to 10000 nM	1000 to 10000 nM	> 10000 nM	< 5000 nM	–
CCn1c(-c2cnccc2COC)c2c3cc(ccc31)-c1cc(O)cc(c1)C[C@H](NC(=O)[C@@H](OC(=O)N1CCCC1)C(C)C)C(=O)N1CCC[C@H](N1)C(=O)OCC(C)(C)C2 [Compound A59]	1000 to 10000 nM	1000 to 10000 nM	1000 to 10000 nM	1000 to 10000 nM	> 10000 nM	> 10000 nM	1000 to 10000 nM	1000 to 10000 nM	1000 to 10000 nM	–	–
CCn1c(-c2cnccc2COC)c2c3cc(ccc31)-c1cc(O)cc(c1)C[C@H](NC(=O)[C@H](C(C)C)N(C)C(=O)CN/C(N)=N/C#N)C(=O)N1CCC[C@H](N1)C(=O)OCC(C)(C)C2 [Compound A62]	100 to 1000 nM	10 to 100 nM	100 to 1000 nM	100 to 1000 nM	100 to 1000 nM	100 to 1000 nM	100 to 1000 nM	100 to 1000 nM	> 10000 nM	–	–
CCn1c(-c2cnccc2COC)c2c3cc(ccc31)-c1cc(O)cc(c1)C[C@H](NC(=O)[C@H](C(C)C)N(C)c1cnc(N)[nH]c1=O)C(=O)N1CCC[C@H](N1)C(=O)OCC(C)(C)C2 [Compound A63]	1000 to 10000 nM	1000 to 10000 nM	1000 to 10000 nM	1000 to 10000 nM	1000 to 10000 nM	> 10000 nM	1000 to 10000 nM	1000 to 10000 nM	> 10000 nM	–	–
CCn1c(-c2cnccc2COC)c2c3cc(ccc31)-c1cc(O)cc(c1)C[C@H](NC(=O)[C@H](C(C)C)N(C)C(=O)CCCCN)C(=O)N1CCC[C@H](N1)C(=O)OCC(C)(C)C2 [Compound A66]	100 to 1000 nM	100 to 1000 nM	1000 to 10000 nM	100 to 1000 nM	100 to 1000 nM	100 to 1000 nM	100 to 1000 nM	100 to 1000 nM	1000 to 10000 nM	–	–
CCn1c(-c2cnccc2COC)c2c3cc(ccc31)-c1cc(O)cc(c1)C[C@H](NC(=O)[C@H](C(C)C)N(C)C(=O)O[C@@H]1CCOC1)C(=O)N1CCC[C@H](N1)C(=O)OCC(C)(C)C2 [Compound A82]	1000 to 10000 nM	100 to 1000 nM	1000 to 10000 nM	1000 to 10000 nM	100 to 1000 nM	1000 to 10000 nM	100 to 1000 nM	1000 to 10000 nM	1000 to 10000 nM	–	1000 to 10000 nM
CCn1c(-c2cccnc2[C@H](C)OC)c2c3cc(ccc31)-c1cc(O)cc(c1)C[C@H](NC(=O)[C@H](C(C)C)N(C)C(=O)[C@H]1[C@@H]3CNC[C@@H]31)C(=O)N1CCC[C@H](N1)C(=O)OCC(C)(C)C2 [Compound A163]	100 to 1000 nM	100 to 1000 nM	1000 to 10000 nM	10 to 100 nM	100 to 1000 nM	100 to 1000 nM	100 to 1000 nM	100 to 1000 nM	1000 to 10000 nM	–	> 10000 nM
CCn1c(-c2cccnc2[C@H](C)OC)c2c3cc(ccc31)-c1cc(O)cc(c1)C[C@H](NC(=O)[C@H](C(C)C)N(C)C(=O)C1(F)CC1)C(=O)N1CCC[C@H](N1)C(=O)OCC(C)(C)C2 [Compound A165]	10 to 100 nM	10 to 100 nM	–	10 to 100 nM	10 to 100 nM	100 to 1000 nM	10 to 100 nM	10 to 100 nM	10 to 100 nM	–	–
CCn1c(-c2cccnc2[C@H](C)OC)c2c3cc(ccc31)-c1cc(O)cc(c1)C[C@H](NC(=O)[C@H](C(C)C)N(C)C(=O)[C@H]1CCN(C(=O)CCc3ccccc3)C1)C(=O)N1CCC[C@H](N1)C(=O)OCC(C)(C)C2 [Compound A201]	100 to 1000 nM	10 to 100 nM	10 to 100 nM	100 to 1000 nM	10 to 100 nM	100 to 1000 nM	100 to 1000 nM	10 to 100 nM	100 to 1000 nM	–	100 to 1000 nM
CCn1c(-c2ccccc2[C@H](C)OC)c2c3cc(ccc31)-c1csc(n1)C[C@H](NC(=O)[C@H](C(C)C)N(C)C(=O)[C@H]1CCN(C(=O)OC3COC3)C1)C(=O)N1CCC[C@H](N1)C(=O)OCC(C)(C)C2 [Compound A203]	1000 to 10000 nM	1000 to 10000 nM	1000 to 10000 nM	1000 to 10000 nM	1000 to 10000 nM	> 10000 nM	1000 to 10000 nM	1000 to 10000 nM	100 to 1000 nM	–	100 to 1000 nM
CCn1c(-c2cccnc2[C@H](C)OC)c2c3cc(ccc31)-c1cc(O)cc(c1)C[C@H](NC(=O)[C@H](C(C)C)N(C)C(=O)[C@H]1C[C@@H]1O)C(=O)N1CCC[C@H](N1)C(=O)OCC(C)(C)C2 [Compound A323]	10 to 100 nM	< 10 nM	10 to 100 nM	10 to 100 nM	–	–	–	< 10 nM	100 to 1000 nM	–	100 to 1000 nM
CCn1c(-c2cccnc2[C@H](C)OC)c2c3cc(ccc31)-c1cc(O)cc(c1)C[C@H](NC(=O)[C@H](C(C)C)N(C)C(=O)[C@H]1CCN(C(=O)C(C)(C)NC)C1)C(=O)N1CCC[C@H](N1)C(=O)OCC(C)(C)C2 [Compound A381]	10 to 100 nM	10 to 100 nM	100 to 1000 nM	10 to 100 nM	–	10 to 100 nM	10 to 100 nM	10 to 100 nM	100 to 1000 nM	–	1000 to 10000 nM

Source: patent US20250195521A1 (Revolution Medicines, Inc., priority 2020, published 2025)
